# Results reported in patent publication EP0196005A1, “Pyridazinones, their preparation and pharmaceutical compositions containing them” (Dr. Karl Thomae GmbH, priority 1985, dated 1986).
# pEC50: −log10 of the molar value.
# Key:
# Thrombozytenaggregation = assay: Platelet aggregation according to Born and Cross (collagen-induced, photometric); format: cell-based, gesunder Versuchspersonen; settings: collagen-induced aggregation in platelet-rich plasma of healthy subjects
# Procedure: 1. Bestimmung der Thrombozytenaggregation nach Bom und Cross (J. Physiol. 170, 397 (1964)):
# Die Thrombozytenaggregation wurde in plättchenreichem Plasma gesunder Versuchspersonen gemessen. Hierbei wurde der Verlauf der Abnahme der optischen Dichte nach Zugabe von handelsüblichem Collagen der Firma Sigma, St. Louis/USA, welches 1 mg Collagen-Fibrillen pro ml enthält, photometrisch gemessen und registriert. Aus dem Neigungswinkel der Dichtekurve wurde auf die Aggregationsgeschwindigkeit (Vmax) geschlossen. Der Punkt der Kurve, bei dem die größte Lichtdurchlässigkeit vorlag, diente zur Berechnung der "optical density" (O.D.). Zur maximalen Aggregationsauslösung werden ca. 0,01 ml der Collagenlösung zu 1 ml plättchenreichem Plasma gegeben.
# narkotisierten Katze = assay: Blood pressure lowering and positive inotropic effect in the anaesthetised cat; format: in vivo; settings: 0,1 mg/kg i.v., mean of 3 cats; for Wirkungsdauer (Halbwerts-zeit): anaesthetised cats; for Blutdruck änderung in mmHg: second value of the printed pair (presumably diastolic), pentobarbital-anaesthetised cats
# Procedure: 2. Bestimmung der blutdrucksenkenden und positiv inotropen Wirkung an der narkotisierten Katze:
# Die Untersuchungen wurden an Katzen durchgeführt, die mit Pentobarbital-Natrium (40 mg/kg i.p.) narkotisiert waren. Die Tiere atmeten spontan. Der arterielle Blutdruck wurde in der Aorta abdominalis mit einem Statham-Druckwandler (P 23 Dc) gemessen. Für die Erfassung der positiv inotropen Wirkung wurde mit einem Kathetertipmanometer (Milliar PC-350 A) der Druck in der linken Herzkammer gemessen. Daraus wurde der Kontraktilitätsparameter dp/dtmax mittels eines Analogdifferenzierers gewonnen. Die zu untersuchende Substanz wurden in eine Vena femoralis injiziert Als Lösungsmittel diente Polydiol 200. Die Substanz wurde an 3 Katzen geprüft, Dosis 0,1 i.v..
structure (smiles),measurement,setting,value
"CC1CC(=O)NN=C1c1ccc2oc(-n3ccnc3)nc2c1 (stereo not shown) [A, 5-Methyl-6-[2-(1-imidazolyl)-benzoxazol-5-yl]-4,5-dihydro-3(2H)-pyridazinon]",pEC50,Thrombozytenaggregation,7.51
same,Wirkungsdauer (Halbwerts-zeit),narkotisierten Katze,25 Minuten
same,Blutdruck änderung in mmHg,narkotisierten Katze,-45 mmHg
"CC1CC(=O)NN=C1c1ccc2nc(N3CCNCC3)oc2c1 (stereo not shown) [B, 5-Methyl-6-[2-(1-piperazinyl)-benzoxazol-6-yl]-4,5-dihydro-3(2H)-pyridazinon]",Wirkungsdauer (Halbwerts-zeit),narkotisierten Katze,12 Minuten
same,Blutdruck änderung in mmHg,narkotisierten Katze,-43 mmHg
"CCOC(=O)N1CCN(c2nc3ccc(C4=NNC(=O)CC4C)cc3o2)CC1 (stereo not shown) [C, 5-Methyl-6-[2-(4-carbäthoxy-1-piperazinyl)-benzoxazol-6-yl]-4,5-dihydro-3(2H)-pyridazinon]",Wirkungsdauer (Halbwerts-zeit),narkotisierten Katze,12 Minuten
same,Blutdruck änderung in mmHg,narkotisierten Katze,-50 mmHg
CC1CC(=O)NN=C1c1ccc2[nH]c(N3CCCC3)nc2c1 (stereo not shown) [D],Wirkungsdauer (Halbwerts-zeit),narkotisierten Katze,13 Minuten
same,Blutdruck änderung in mmHg,narkotisierten Katze,-17 mmHg
"CC1CC(=O)NN=C1c1ccc2[nH]c(N3CCSCC3)nc2c1 (stereo not shown) [E, 5-Methyl-6-[2-(4-thiomorpholino)-benzimidazol-5-yl]-4,5-dihydro-3(2H)-pyridazinon]",Wirkungsdauer (Halbwerts-zeit),narkotisierten Katze,10 Minuten
same,Blutdruck änderung in mmHg,narkotisierten Katze,-12 mmHg
"CC1CC(=O)NN=C1c1ccc2nc(-n3ccnc3)[nH]c2c1 (stereo not shown) [F, 5-Methyl-6-[2-(1-imidazolyl)-benzimidazol-5-yl]-4,5-dihydro-3(2H)-pyridazinon]",Wirkungsdauer (Halbwerts-zeit),narkotisierten Katze,8 Minuten
same,Blutdruck änderung in mmHg,narkotisierten Katze,-20 mmHg
